This note sets out measurements from publication PMC8983325 (Protein & Cell, 2022).

In this assay the test system is SARS-CoV-2 variants of concern (Alpha, Beta, Delta and Omicron). Briefly: microbe, parasite or virus in culture. It is filed as cell-based. The following applies: Severe acute respiratory syndrome coronavirus 2, VeroE6/TMPRSS2, read-out: EC50 against SARS-CoV-2 VOC.

`O=C(Nc1ccccc1Cl)c1sc(=S)n2c1[nH]c(=O)c1ccccc12` [F0213]: the EC50 was in the range of 2.2 to 4.8 µM.

What is called EC50 is the concentration at which the effect is half-maximal.
